Test results from PubChem BioAssay AID1963838 (Molecular Pharmacology Branch, DTP, NCI, 2024).
pIC50: −log10 of the molar value.

System: 855422-203-R-J1-PDC complex spheroid viability
Test: Anticancer human tumor 855422-203-R-J1-PDC patient-derived bladder carcinoma cell line growth inhibition [POLQ]
Details: for pIC50: curve of first compound; for viability, T/C: stronger effect = lower value
Outline: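 Growth inhibition in 3D: complex spheroids (tumor PDC, HUVEC, MSC) treated with POLQ inhibitor combinations; where Cmax unknown, highest tested concentration 10 microM, except SN-38 at 1 microM.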

[1] = second compound 0.0316 µM, first compound 0.0316 µM
[2] = second compound 0.0316 µM, first compound 0.1 µM
[3] = second compound 0.0316 µM, first compound 0.316 µM
[4] = second compound 0.0316 µM, first compound 1 µM
[5] = second compound 0.1 µM, first compound 0.0316 µM
[6] = second compound 0.1 µM, first compound 0.1 µM
[7] = second compound 0.1 µM, first compound 0.316 µM
[8] = second compound 0.1 µM, first compound 1 µM
[9] = second compound 0.316 µM, first compound 0.0316 µM
[10] = second compound 0.316 µM, first compound 0.1 µM
[11] = second compound 0.316 µM, first compound 0.316 µM
[12] = second compound 0.316 µM, first compound 1 µM
[13] = second compound 1 µM, first compound 0.0316 µM
[14] = second compound 1 µM, first compound 0.1 µM
[15] = second compound 1 µM, first compound 0.316 µM
[16] = second compound 1 µM, first compound 1 µM
[17] = second compound 3.16 µM, first compound 0.0316 µM
[18] = second compound 3.16 µM, first compound 0.1 µM
[19] = second compound 3.16 µM, first compound 0.316 µM
[20] = second compound 3.16 µM, first compound 1 µM
[21] = second compound 10 µM, first compound 0.0316 µM
[22] = second compound 10 µM, first compound 0.1 µM
[23] = second compound 10 µM, first compound 0.316 µM
[24] = second compound 10 µM, first compound 1 µM
[25] = second compound 0.0316 µM, first compound 3.16 µM
[26] = second compound 0.0316 µM, first compound 10 µM
[27] = second compound 0.1 µM, first compound 3.16 µM
[28] = second compound 0.1 µM, first compound 10 µM
[29] = second compound 0.316 µM, first compound 3.16 µM
[30] = second compound 0.316 µM, first compound 10 µM
[31] = second compound 1 µM, first compound 3.16 µM
[32] = second compound 1 µM, first compound 10 µM
[33] = second compound 3.16 µM, first compound 3.16 µM
[34] = second compound 3.16 µM, first compound 10 µM
[35] = second compound 10 µM, first compound 3.16 µM
[36] = second compound 10 µM, first compound 10 µM
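Further: spheroids exposed to compounds for seven days before readout.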

## C=CCn1c(=O)c2cnc(Nc3ccc(N4CCN(C)CC4)cc3)nc2n1-c1cccc(C(C)(C)O)n1 + Cc1cccc(N(C)C(=O)C2C(O)CCN2c2nc(C)cc(C(F)(F)F)c2C#N)c1
Second compound 0.0316 µM
  pIC50: < 6.00
Second compound 0.1 µM
  pIC50: < 6.00
Second compound 0.316 µM
  pIC50: < 6.00
Second compound 1 µM
  pIC50: < 6.00
Second compound 3.16 µM
  pIC50: < 6.00
Second compound 10 µM
  pIC50: < 6.00
Second compound 0.0316 µM, first compound 0.00316 µM
  viability, T/C: 109%
Second compound 0.0316 µM, first compound 0.01 µM
  viability, T/C: 124%
[1]
  viability, T/C: 98%
[2]
  viability, T/C: 100%
[3]
  viability, T/C: 113%
[4]
  viability, T/C: 148%
Second compound 0.1 µM, first compound 0.00316 µM
  viability, T/C: 110%
Second compound 0.1 µM, first compound 0.01 µM
  viability, T/C: 122%
[5]
  viability, T/C: 93%
[6]
  viability, T/C: 99%
[7]
  viability, T/C: 124%
[8]
  viability, T/C: 175%
Second compound 0.316 µM, first compound 0.00316 µM
  viability, T/C: 102%
Second compound 0.316 µM, first compound 0.01 µM
  viability, T/C: 101%
[9]
  viability, T/C: 95.7%
[10]
  viability, T/C: 101%
[11]
  viability, T/C: 126%
[12]
  viability, T/C: 173%
Second compound 1 µM, first compound 0.00316 µM
  viability, T/C: 87.7%
Second compound 1 µM, first compound 0.01 µM
  viability, T/C: 112%
[13]
  viability, T/C: 91.1%
[14]
  viability, T/C: 118%
[15]
  viability, T/C: 124%
[16]
  viability, T/C: 165%
Second compound 3.16 µM, first compound 0.00316 µM
  viability, T/C: 91.4%
Second compound 3.16 µM, first compound 0.01 µM
  viability, T/C: 107%
[17]
  viability, T/C: 100%
[18]
  viability, T/C: 105%
[19]
  viability, T/C: 115%
[20]
  viability, T/C: 186%
Second compound 10 µM, first compound 0.00316 µM
  viability, T/C: 119%
Second compound 10 µM, first compound 0.01 µM
  viability, T/C: 105%
[21]
  viability, T/C: 115%
[22]
  viability, T/C: 137%
[23]
  viability, T/C: 208%
[24]
  viability, T/C: 123%

## CC1COCCN1c1cc(-c2ccnn2C)c2ccnc(-c3ccn[nH]3)c2n1 (stereo unspecified) + Cc1cccc(N(C)C(=O)C2C(O)CCN2c2nc(C)cc(C(F)(F)F)c2C#N)c1
Second compound 0.0316 µM
  pIC50: 6.77
Second compound 0.1 µM
  pIC50: 6.82
Second compound 0.316 µM
  pIC50: 6.78
Second compound 1 µM
  pIC50: 6.78
Second compound 3.16 µM
  pIC50: 6.81
Second compound 10 µM
  pIC50: 6.78
[1]
  viability, T/C: 113%
[2]
  viability, T/C: 73%
[3]
  viability, T/C: 21.4%
[4]
  viability, T/C: 12.4%
[25]
  viability, T/C: 7.93%
[26]
  viability, T/C: 7.23%
[5]
  viability, T/C: 94.7%
[6]
  viability, T/C: 68.9%
[7]
  viability, T/C: 17.3%
[8]
  viability, T/C: 9.3%
[27]
  viability, T/C: 8.23%
[28]
  viability, T/C: 7.12%
[9]
  viability, T/C: 108%
[10]
  viability, T/C: 73.4%
[11]
  viability, T/C: 20.4%
[12]
  viability, T/C: 10.9%
[29]
  viability, T/C: 7.43%
[30]
  viability, T/C: 7.37%
[13]
  viability, T/C: 111%
[14]
  viability, T/C: 70.3%
[15]
  viability, T/C: 23.3%
[16]
  viability, T/C: 11.7%
[31]
  viability, T/C: 8.35%
[32]
  viability, T/C: 7.83%
[17]
  viability, T/C: 105%
[18]
  viability, T/C: 66.8%
[19]
  viability, T/C: 22.7%
[20]
  viability, T/C: 10.6%
[33]
  viability, T/C: 7.46%
[34]
  viability, T/C: 6.31%
[21]
  viability, T/C: 93.5%
[22]
  viability, T/C: 70.3%
[23]
  viability, T/C: 24.7%
[24]
  viability, T/C: 12.4%
[35]
  viability, T/C: 8.8%
[36]
  viability, T/C: 9.23%

## CC1COCCN1c1cc(C2(S(C)(=N)=O)CC2)nc(-c2ccnc3[nH]ccc23)n1 (stereo unspecified) + Cc1cccc(N(C)C(=O)C2C(O)CCN2c2nc(C)cc(C(F)(F)F)c2C#N)c1
Second compound 0.0316 µM
  pIC50: 5.59
Second compound 0.1 µM
  pIC50: 5.58
Second compound 0.316 µM
  pIC50: 5.60
Second compound 1 µM
  pIC50: 5.60
Second compound 3.16 µM
  pIC50: 5.63
Second compound 10 µM
  pIC50: 5.67
[1]
  viability, T/C: 112%
[2]
  viability, T/C: 97.3%
[3]
  viability, T/C: 107%
[4]
  viability, T/C: 106%
[25]
  viability, T/C: 37.4%
[26]
  viability, T/C: 12.5%
[5]
  viability, T/C: 94.7%
[6]
  viability, T/C: 107%
[7]
  viability, T/C: 115%
[8]
  viability, T/C: 100%
[27]
  viability, T/C: 41.1%
[28]
  viability, T/C: 10.7%
[9]
  viability, T/C: 96.3%
[10]
  viability, T/C: 106%
[11]
  viability, T/C: 101%
[12]
  viability, T/C: 107%
[29]
  viability, T/C: 36.6%
[30]
  viability, T/C: 10.6%
[13]
  viability, T/C: 110%
[14]
  viability, T/C: 123%
[15]
  viability, T/C: 115%
[16]
  viability, T/C: 103%
[31]
  viability, T/C: 36%
[32]
  viability, T/C: 10.8%
[17]
  viability, T/C: 105%
[18]
  viability, T/C: 119%
[19]
  viability, T/C: 94.5%
[20]
  viability, T/C: 105%
[33]
  viability, T/C: 31.4%
[34]
  viability, T/C: 10.2%
[21]
  viability, T/C: 103%
[22]
  viability, T/C: 102%
[23]
  viability, T/C: 105%
[24]
  viability, T/C: 97.5%
[35]
  viability, T/C: 25.7%
[36]
  viability, T/C: 14.1%
